The text below walks through data of ChEMBL document CHEMBL3808391, “Evolution of a New Class of VEGFR-2 Inhibitors from Scaffold Morphing and Redesign” (ACS Med Chem Lett, 2016).

The target in the experiment is Vascular endothelial growth factor receptor 2 (Homo sapiens, UniProt P35968). Put plainly: Inhibition of KDR (unknown origin).
Sequence of Vascular endothelial growth factor receptor 2 (P35968 whole entry): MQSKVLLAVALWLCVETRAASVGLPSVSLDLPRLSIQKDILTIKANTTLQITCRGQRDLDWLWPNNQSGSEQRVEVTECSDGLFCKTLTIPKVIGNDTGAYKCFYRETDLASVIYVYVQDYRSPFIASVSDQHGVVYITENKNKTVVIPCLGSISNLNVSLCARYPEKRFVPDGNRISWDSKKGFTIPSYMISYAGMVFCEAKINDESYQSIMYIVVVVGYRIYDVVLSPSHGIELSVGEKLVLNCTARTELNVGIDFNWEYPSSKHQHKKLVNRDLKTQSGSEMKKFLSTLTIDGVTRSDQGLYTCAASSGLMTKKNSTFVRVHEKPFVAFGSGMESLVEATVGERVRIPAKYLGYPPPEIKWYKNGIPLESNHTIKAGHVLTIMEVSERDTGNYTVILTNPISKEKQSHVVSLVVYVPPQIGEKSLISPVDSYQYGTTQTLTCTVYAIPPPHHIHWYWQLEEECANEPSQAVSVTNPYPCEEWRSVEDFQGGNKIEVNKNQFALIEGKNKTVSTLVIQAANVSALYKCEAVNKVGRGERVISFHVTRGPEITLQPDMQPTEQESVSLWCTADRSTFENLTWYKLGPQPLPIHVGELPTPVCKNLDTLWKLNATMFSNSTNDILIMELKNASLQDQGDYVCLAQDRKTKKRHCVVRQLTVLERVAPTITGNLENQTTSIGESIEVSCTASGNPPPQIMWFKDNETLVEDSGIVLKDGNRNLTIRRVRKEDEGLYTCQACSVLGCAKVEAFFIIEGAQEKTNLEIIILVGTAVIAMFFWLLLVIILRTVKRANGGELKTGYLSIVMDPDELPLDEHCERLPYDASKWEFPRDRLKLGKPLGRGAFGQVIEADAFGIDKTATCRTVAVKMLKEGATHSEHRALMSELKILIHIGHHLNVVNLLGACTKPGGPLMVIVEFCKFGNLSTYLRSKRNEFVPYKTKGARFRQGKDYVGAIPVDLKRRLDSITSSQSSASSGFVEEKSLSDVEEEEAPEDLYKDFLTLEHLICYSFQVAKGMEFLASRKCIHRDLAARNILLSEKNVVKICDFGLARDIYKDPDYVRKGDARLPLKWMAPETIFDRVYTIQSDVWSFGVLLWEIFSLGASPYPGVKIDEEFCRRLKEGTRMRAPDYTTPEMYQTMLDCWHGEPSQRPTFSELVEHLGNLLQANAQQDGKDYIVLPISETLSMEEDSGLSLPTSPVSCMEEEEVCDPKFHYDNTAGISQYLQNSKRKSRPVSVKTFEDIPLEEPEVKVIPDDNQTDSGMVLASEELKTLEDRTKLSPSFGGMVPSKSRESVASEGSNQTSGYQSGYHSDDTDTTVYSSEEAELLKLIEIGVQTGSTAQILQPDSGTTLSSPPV

As to `Nc1cc(-c2ccc(NC(=O)Nc3cccc(C(F)(F)F)c3)cc2)on1`, the IC50 – broadly, the midpoint of a concentration-inhibition curve – is above 10 µM.
The figure for `CC(C)(C)c1cc(NC(=O)Nc2ccc(-c3cc(N)no3)cc2)no1` is above 10 µM.
